# Measurements: PubChem BioAssay (NCI)
#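 Cultured in 96-well plates, cells were exposed to test compound for 48 hours across five concentrations. GI50 = concentration required for 50% inhibition of growth. TGI: concentration producing complete growth inhibition.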
# Key:
# Assay in all cases: DTP human tumour cell line panel, 48 h
# [1] = tested on: ACHN renal
# [2] = tested on: COLO 205 colon
# [3] = tested on: MDA-MB-435
# [4] = tested on: UO-31 renal
# [5] = tested on: SK-MEL-28 melanoma
# [6] = tested on: OVCAR-3 ovarian
# [7] = tested on: SN12C renal
# [8] = tested on: NCI-H226 lung
# [9] = tested on: SW-620 colon
# [10] = tested on: MOLT-4 leukemia
# [11] = tested on: CAKI-1 renal
SMILES,TGI [1] [µM],TGI [2] [µM],TGI [3] [µM],TGI [4] [µM],TGI [5] [µM],TGI [6] [µM],TGI [7] [µM],TGI [8] [µM],TGI [9] [µM],TGI [10] [µM],TGI [11] [µM],GI50 [4] [µM],GI50 [6] [µM],GI50 [8] [µM],GI50 [10] [µM]
CN(C)CCCOc1nc2c(c(=O)n(C)c(=O)n2C)n1C (tested in a mixture with another compound),68.8,> 100,> 100,> 100,> 100,> 100,30.1,47.7,> 100,13.9,66.3,–,–,–,–
O=C(O)CN(CCNC(=O)OCC1c2ccccc2-c2ccccc21)CCNC(=O)OCC1c2ccccc2-c2ccccc21,35.1,40.7,34.4,37.5,42.1,35.6,80.1,81.2,42.3,49.3,–,–,–,–,–
CN1C(=O)C2C(=O)N(Cc3ccccc3)CC(=O)N2c2cccnc21 (configuration not stated),> 100,> 100,> 100,> 100,–,> 100,–,> 100,–,> 100,> 100,–,–,–,–
CC1(O)CC(C(F)(F)F)(C(F)(F)F)OC1=O (configuration not stated),> 10,> 10,> 10,> 10,> 10,> 10,> 10,> 10,> 10,> 10,> 10,–,–,–,–
OCC1CCCCCCCCCCC12SCCCS2 (configuration not stated),> 100,> 100,> 100,> 100,> 100,> 100,–,> 100,> 100,> 100,> 100,–,–,–,–
O=C1/C(=C/c2ccccc2)N=C(c2ccccc2)N1n1c(-c2ccccc2)nc2ccccc2c1=O,> 100,> 100,> 100,> 100,> 100,> 100,> 100,> 100,> 100,> 100,–,–,–,–,–
OCc1ccc2[n+](c1)CCC1c3ccccc3NC21 (configuration not stated),> 300,> 300,–,–,> 300,> 300,> 300,> 300,> 300,> 300,> 300,–,–,–,–
COc1cc(-c2cc(=O)c3cc4c(cc3[nH]2)OCO4)cc(OC)c1O,> 10,> 10,> 10,> 10,> 10,> 10,> 10,> 10,> 10,> 10,> 10,–,–,–,–
Cc1ccc(-c2c(C#N)c(-c3ccccc3)n(NS(=O)(=O)c3ccccc3)c(=O)c2C#N)cc1,> 100,> 100,> 100,–,> 100,–,> 100,> 100,> 100,72.6,> 100,–,–,–,–
Cc1cc(N(CCC#N)CCC#N)ccc1/C=N/NC(=O)c1cc(Cl)ccc1O,–,> 100,> 100,–,–,> 100,> 100,> 100,–,> 100,> 100,–,–,–,–
O=C(CC(=O)n1nc(-c2ccccc2)c(N=Nc2ccccc2C(=O)O)c1-c1ccccc1)Nc1ccc(Cl)cc1,> 100,> 100,–,47.8,> 100,–,–,> 100,> 100,27.9,–,–,–,–,–
C=C1CC(COc2cc(=O)oc3ccccc23)(c2ccccc2)OC1=O (configuration not stated),4.54,3.1,11,16,6.13,1.87,6.92,19.3,3.35,> 20.8,2.67,–,–,–,–
COc1ccccc1Nc1nc(N)nc(N)c1N=O,> 100,> 100,> 100,> 100,> 100,–,> 100,> 100,> 100,> 100,–,–,–,–,–
O=C(CN1c2ccccc2Sc2ccccc21)N1CCNCC1,> 100,> 100,> 100,> 100,> 100,> 100,> 100,> 100,> 100,> 100,–,–,–,–,–
C=C(C)C12CC(COC(=O)c3ccccc3)C34OC5(OC1C3C1OC1(CO)C(O)C1(O)C(OC(=O)c3ccccc3)C(C)C(C(C)CCCCCCC5O)C14)O2 (configuration not stated),> 100,24.4,> 79.3,> 100,> 100,> 100,> 100,> 100,–,–,> 100,–,–,–,–
NC(N)=NS(=O)(=O)c1ccc(NCc2c3ccccc3[n+]([O-])c3ccccc23)cc1,70.4,> 100,–,73.8,62.5,> 100,> 100,72.8,> 100,43.8,> 100,–,–,–,–
CC(C)(C)C1=C(Br)C(Br)(C(C)(C)C)OP1(=O)c1ccccc1 (configuration not stated),> 100,> 100,> 100,> 100,> 100,> 100,> 100,–,> 100,–,> 100,–,–,–,–
COc1ccc(C(C#N)NNC(=O)c2ccccc2O)cc1OC (configuration not stated),96.6,> 100,–,2.2,> 100,> 100,> 100,22.4,> 100,> 100,61.4,–,–,–,–
CCOC(=O)C1Cc2[nH]c3ccccc3c2C(C)C1C (configuration not stated),39.8,32.6,–,35.8,33.7,30.1,32.8,25.3,33.6,42,33.9,–,–,–,–
Nc1cc(CO)cc(Nc2nc3ccc(Cl)cc3c3[nH]c4ccccc4c23)c1,15,11.6,15.3,11.6,–,–,12.9,–,29.3,32.2,8.33,–,–,–,–
NC(C(F)(F)F)(C(F)(F)F)P(=O)(Cc1ccccc1)Cc1ccccc1,> 100,> 100,> 100,> 100,> 100,> 100,> 100,–,> 100,> 100,> 100,–,–,–,–
O=C1CCC[C@@H]2NC[C@@H](c3ccc4c(c3)OCO4)[C@H]12,> 25,> 25,> 25,> 25,> 25,–,> 25,> 25,–,> 25,> 25,–,–,–,–

SMILES,TGI [1] [µM],TGI [2] [µM],TGI [3] [µM],TGI [4] [µM],TGI [5] [µM],TGI [6] [µM],TGI [7] [µM],TGI [8] [µM],TGI [9] [µM],TGI [10] [µM],TGI [11] [µM],GI50 [4] [µM],GI50 [6] [µM],GI50 [8] [µM],GI50 [10] [µM]
C[C@@]12[C@H]3CC[C@@H]1[C@H](O)C(=O)N2CC3,> 100,> 100,> 100,> 100,> 100,> 100,–,> 100,> 100,> 100,> 100,–,–,–,–
Cc1nc2c(sc(=S)n2-c2ccccc2)c2nc3ncccc3n12,> 100,> 100,> 100,> 100,> 100,> 100,> 100,–,> 100,> 100,> 100,–,–,–,–
O=C1OCc2c1cc1ccc(O)c(OC3OC(CO)C(O)C(O)C3O)c1c2-c1ccc2c(c1)OCO2 (configuration not stated),> 100,> 100,–,> 100,> 100,> 100,> 100,> 100,> 100,> 100,> 100,27.2,64.6,48.4,34.3
Cc1nc(-c2ccc([N+](=O)[O-])cc2)cn2c1nc1ccccc12,–,> 100,> 100,> 100,> 100,> 100,> 100,> 100,> 100,> 100,> 100,–,–,–,–
CC(C)(C)c1ccc2c(c1)CNCCNCc1cc(C(C)(C)C)ccc1OCC1(CO2)COc2ccc(C(C)(C)C)cc2CNCCNCc2cc(C(C)(C)C)ccc2OC1,2.98,2.29,1,3.25,3.05,3.12,–,2.26,3.56,0.504,2.74,–,–,–,–
CC(O[Si](c1ccccc1)(c1ccccc1)C(C)(C)C)[C@H](NC(=O)OC(C)(C)C)C(=O)O[Si](c1ccccc1)(c1ccccc1)C(C)(C)C (some centres not stated),23.9,31.3,–,26.3,28.5,–,–,–,32.1,53.1,27,–,–,–,–
COC(=O)CC(=O)C[P+](c1ccccc1)(c1ccccc1)c1ccccc1,> 218,> 218,–,–,> 218,> 218,> 218,> 218,> 218,> 218,> 218,–,–,–,–
O=C(/C=C/c1ccc(O)c([N+](=O)[O-])c1)CC(=O)/C=C/c1ccc(O)c([N+](=O)[O-])c1,> 100,> 100,> 100,> 100,> 100,> 100,> 100,> 100,> 100,–,–,–,–,–,–
CCN(CC)CCc1c2c(nc3ccccc13)C(=O)c1cccnc1C2=O,–,3.07,4.99,–,7.27,5.8,5.92,18.2,12.7,–,4.9,–,–,–,–
N.N.N.O=[N+]([O-])[O-].O=[N+]([O-])[O-].O=[N+]([O-])[O-].O=[N+]([O-])[O-].[Co+3],> 100,> 100,–,> 100,> 100,> 100,> 100,–,> 100,> 100,–,–,–,–,–
CC1(C)CC(/C=C2/OC(=O)c3ccccc32)=C(C#N)C(=O)O1,> 100,> 100,–,> 100,> 100,> 100,> 100,> 100,> 100,> 100,> 100,–,–,–,–
COc1cc(O)c(/C=N/N=C(\N)NO)c(OC)c1,> 10,> 10,> 10,> 10,> 10,> 10,> 10,> 10,> 10,–,> 10,–,–,–,–
CC1(Cl)C(=O)NC(=O)N(C2CC(N=[N+]=[N-])C(CO)O2)C1N=[N+]=[N-] (configuration not stated),> 100,> 100,–,> 100,> 100,> 100,> 100,–,> 100,> 100,> 100,–,–,–,–
c1ccc(C2C3=C(Nc4ncnn42)c2ccccc2C3)cc1 (configuration not stated),> 100,25.8,–,> 100,–,30.3,> 100,–,17.4,> 100,> 100,–,–,–,–
N=C1CSC2=NC3=C(CCC/C3=C\c3ccccc3)C(c3ccccc3)N12 (configuration not stated),24.8,21.3,–,27.4,–,8.24,27.9,35.1,15.2,8.03,29.2,–,–,–,–
Cn1cc2ccccc2c1-c1nc(N)nc(F)n1,> 100,> 100,–,> 100,> 100,> 100,> 100,> 100,> 100,> 100,> 100,–,–,–,–
OCCCCCNc1c2ccccc2nc2ccccc12,1.42,4.54,8.5,10,16.9,> 28.8,9.34,–,15.9,> 63.3,8.31,–,–,–,–
COC(=O)C(CCC#N)(CCC#N)C(=O)OC,> 100,> 100,–,> 100,> 100,> 100,> 100,> 100,> 100,> 100,–,–,–,–,–
COc1cc2c(cc1OC)C1=Cc3cc(OC)c(OC)cc3C(C)N1C=C2 (configuration not stated),> 100,> 100,> 100,> 100,> 100,> 100,> 100,> 100,> 100,> 100,–,–,–,–,–
S=C(N/N=C\C=N/NC(=S)N1CCCCC1)N1CCCCC1,–,> 100,> 100,> 63.1,> 100,78.2,> 100,> 68.1,> 100,–,> 100,–,–,–,–
COC(=O)CC(C(C(=O)OC)C(=O)OC)N1C(=O)OCC1c1ccccc1 (configuration not stated),> 100,> 100,–,> 100,> 100,> 100,> 100,> 100,> 100,> 100,> 100,–,–,–,–
